Laboratory results taken from patent US20190169140A1, “IDO1 INHIBITOR AND PREPARATION METHOD AND APPLICATION THEREOF” (SHANDONG LUYE PHARMACEUTICAL CO., LTD., priority 2016, published 2019).

Target: T1, recombinant human IDO1 enzyme (Homo sapiens, UniProt P14902)
T1 construct: purchased NTRC (Netherlands Translational Research Center) NTRC-hIDO-10K
Assay: Test of hIDO1 for enzymatic activity in vitro (NFK Green fluorescence)
Format: biochemical
Method: 1. Test of hIDO1 for Enzymatic Activity In Vitro
1.1 Purpose of Experiment:
Changes in production of NFK, an IDO1 enzymatic metabolite were detected with NFK Green™ fluorescent molecules. With an IC50 value of a compound as an index, an inhibitory effect of the compound on recombinant human IDO1 enzyme was evaluated.
The compound was diluted with dimethyl sulfoxide (DMSO) to 1 mM, with 10 gradients, each 3-fold dilution, in duplicate. 48 μL of 50 mM phosphate buffer, having pH of 6.5, was transferred by the Bravo automatic liquid processing platform to the compound plate. Then 2 μL of an already diluted compound/DMSO solution was added. After even mixing, 10 μL of the resultant mixture was transferred to the enzymatic reaction plate.
IDO1 enzyme was diluted to 20 nM in a reaction buffer (50 mM phosphate buffer with pH of 6.5, 0.1% of Tween-20, 2% of glycerol, 20 mM ascorbic acid, 20 μg/ml catalase, and 20 μM methylene blue), 20 μL of the diluted IDO1 enzyme was transferred to the enzymatic reaction plate, and incubated at 23° C. for 30 minutes. 10 μL of 400 μM L-type tryptophan substrate was added to start reaction. The incubation lasted at 23° C. for 90 minutes. 10 μL of NFK Green™ fluorescent dye was added. The resultant mixture was sealed with the plate sealing film. After incubation at 37° C. for 4 hours, an Envision multi-functional plate reader was used for reading (Ex 400 nm/Em 510 nm).
A reference well to which the IDO1 enzyme was added but no compound was added was set to have an inhibition rate of 0%, and a reference well to which no IDO1 enzyme was added was set to have an inhibition rate of 100%. Data was analyzed with XLFit 5 to calculate an IC50 value of the compound.

T1 sequence (P14902 whole entry): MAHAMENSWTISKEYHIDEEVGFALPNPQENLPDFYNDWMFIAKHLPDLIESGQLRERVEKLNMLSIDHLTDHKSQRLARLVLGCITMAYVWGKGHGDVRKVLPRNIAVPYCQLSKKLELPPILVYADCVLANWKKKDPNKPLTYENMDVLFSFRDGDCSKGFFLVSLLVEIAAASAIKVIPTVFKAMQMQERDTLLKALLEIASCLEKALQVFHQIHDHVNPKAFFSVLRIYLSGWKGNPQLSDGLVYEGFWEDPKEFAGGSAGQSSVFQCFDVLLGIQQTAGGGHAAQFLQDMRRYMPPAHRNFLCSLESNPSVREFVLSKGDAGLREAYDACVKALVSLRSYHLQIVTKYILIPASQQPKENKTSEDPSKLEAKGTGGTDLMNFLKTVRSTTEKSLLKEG

Row | IC50 [nM] | SMILES
1 | 702 | O/N=C(\Nc1ccc(F)c(Br)c1)c1nonc1OCCc1ccccn1 [Compound 0131]
2 | 5700 | NS(=O)(=O)NCCOc1nonc1/C(=N/O)Nc1cc(F)c(Cl)c(F)c1 [Compound 0156]
3 | 452 | CS(=O)(=O)N1CC(COc2nonc2/C(=N/O)Nc2ccc(F)c(Br)c2)C1 [Compound 0141]
4 | 616 | N#Cc1cc(N/C(=N\O)c2nonc2OCCNS(N)(=O)=O)ccc1F [Compound 0120]
5 | 846 | NS(=O)(=O)NCC[S+]([O-])c1nonc1/C(=N/O)Nc1ccc(F)c(Br)c1 (stereo not drawn) [Compound 0239]
6 | > 10000 | O/N=C(\Nc1ccc(F)c(Br)c1)c1nonc1OCc1c[nH]cn1 [Compound 0143]
7 | 197 | CN(C)CCOc1nonc1/C(=N/O)Nc1ccc(F)c(Br)c1 [Compound 0140]
8 | 673 | CN(C)CCN(C)CCOc1nonc1/C(=N/O)Nc1ccc(F)c(Br)c1 [Compound 0182]
9 | 594 | O=C1NCCN1CCOc1nonc1/C(=N/O)Nc1ccc(F)c(Br)c1 [Compound 0179]
10 | 537 | COc1nonc1/C(=N/O)Nc1ccc(F)c(C#N)c1 [Compound 0103]
11 | 4360 | COc1c(F)cc(N/C(=N\O)c2nonc2OCCNS(N)(=O)=O)cc1F [Compound 0158]
12 | 799 | CC(COc1nonc1/C(=N/O)Nc1ccc(F)c(Br)c1)NS(N)(=O)=O (stereo not drawn) [Compound 0071]
13 | 3830 | NS(=O)(=O)NCCOc1nonc1/C(=N/O)Nc1ccc(Cl)c(Cl)c1 [Compound 0160]
14 | 4830 | NS(=O)(=O)NCCOc1nonc1/C(=N/O)Nc1ccc(Cl)c(C(F)(F)F)c1 [Compound 0184]
15 | 203 | O=S(=O)(NCCSc1nonc1/C(=N/O)Nc1ccc(F)c(Br)c1)C1CC1 [Compound 0230]
16 | 590 | NS(=O)(=O)NCCOc1nonc1/C(=N/O)Nc1cc(F)c(F)c(Br)c1 [Compound 0189]
17 | > 10000 | O/N=C(\Nc1ccc(F)c(Br)c1)c1nonc1Oc1ccc(Cl)cc1 [Compound 0150]
18 | > 10000 | NOc1nonc1/C(=N/O)Nc1ccc(F)c(Br)c1 [Compound 0077]
19 | 364 | C=CCSc1nonc1/C(=N/O)Nc1ccc(F)c(Br)c1 [Compound 0138]
20 | 601 | COCCCCOc1nonc1/C(=N/O)Nc1ccc(F)c(Br)c1 [Compound 0128]
21 | 928 | NS(=O)(=O)NCCOc1nonc1/C(=N/O)Nc1ccc(F)c(F)c1 [Compound 0162]
22 | 188 | NS(=O)(=O)NCCOc1nonc1/C(=N/O)Nc1ccc(F)c(C(F)(F)F)c1 [Compound 0121]
23 | 125 | O=C(CSc1nonc1/C(=N/O)Nc1ccc(F)c(Br)c1)NCC(F)(F)F [Compound 0301]
24 | 1030 | O/N=C(\Nc1ccc(F)c(Br)c1)c1nonc1OC1CCOC1 (stereo not drawn) [Compound 0124]

Row | IC50 [nM] | SMILES
25 | 1300 | O=S(=O)(NCCOc1nonc1/C(=N/O)Nc1ccc(F)c(Br)c1)c1ccccc1 [Compound 0107]
26 | 2070 | CC(CNS(N)(=O)=O)Oc1nonc1/C(=N/O)Nc1ccc(F)c(Br)c1 (stereo not drawn) [Compound 0119]
27 | > 10000 | COc1nonc1/C(=N/C#N)Nc1ccc(F)c(Br)c1 [Compound 0069]
28 | 1310 | CS(=O)(=O)N1CCC(COc2nonc2/C(=N/O)Nc2ccc(F)c(Br)c2)CC1 [Compound 0142]
29 | 5710 | O/N=C(\Nc1ccc(F)c(Br)c1)c1nonc1SC1CCCCC1 [Compound 0137]
30 | 3290 | O/N=C(\Nc1ccc(F)c(Br)c1)c1nonc1OCC(F)(F)F [Compound 0135]
31 | > 10000 | O/N=C(\Nc1ccc(F)c(Br)c1)c1nonc1OCc1cncs1 [Compound 0144]
32 | 1030 | CN(CCOc1nonc1/C(=N/O)Nc1ccc(F)c(Br)c1)Cc1ccccc1 [Compound 0133]
33 | > 10000 | CCS(=O)(=O)CCOc1nonc1/C(=N/O)Nc1ccc(F)c(Br)c1 [Compound 0180]
34 | 387 | O=C(NCCOc1nonc1/C(=N/O)Nc1ccc(F)c(Br)c1)c1ccccc1 [Compound 0108]
35 | 7150 | O/N=C(\Nc1ccc(F)c(Br)c1)c1nonc1SCc1ccccc1Cl [Compound 0134]
36 | 88 | O=C(CSc1nonc1/C(=N/O)Nc1ccc(F)c(Br)c1)NCC(F)F [Compound 0302]
37 | 1120 | CCN(CC)C(=O)COc1nonc1/C(=N/O)Nc1ccc(F)c(Br)c1 [Compound 0183]
38 | 466 | NS(=O)(=O)N[C@H]1C[C@H](Oc2nonc2/C(=N/O)Nc2ccc(F)c(Br)c2)C1 [Compound 0222]
39 | 945 | NS(=O)(=O)NCCOc1nonc1/C(=N/O)Nc1ccc(F)c(Cl)c1 [Compound 0190]
40 | 565 | NS(=O)(=O)NCCOc1nonc1/C(=N/O)Nc1ccc(F)c(C2CC2)c1 [Compound 0122]
41 | > 10000 | CC(C)(C)OC(=O)NOc1nonc1/C(=N/O)Nc1ccc(F)c(Br)c1 [Compound 0078]
42 | 981 | NS(=O)(=O)NC(COc1nonc1/C(=N/O)Nc1ccc(F)c(Br)c1)c1ccccc1 (stereo not drawn) [Compound 0089]
43 | 373 | CN(C)S(=O)(=O)NCCSc1nonc1/C(=N/O)Nc1ccc(F)c(Br)c1 [Compound 0232]
44 | 1380 | NS(=O)(=O)NC1(COc2nonc2/C(=N/O)Nc2ccc(F)c(Br)c2)CC1 [Compound 0070]
45 | > 10000 | O/N=C(\Nc1ccc(F)c(Br)c1)c1nonc1O [Compound 0026]
46 | 72.6 | CCNC(=O)CSc1nonc1C(=NO)Nc1ccc(F)c(Br)c1 [Compound 0300]
47 | 426 | O/N=C(\Nc1ccc(F)c(Br)c1)c1nonc1OCC1COC1 [Compound 0129]

Row | SMILES | IC50 [nM]
48 | CP(C)(=O)NCCOc1nonc1/C(=N/O)Nc1ccc(F)c(Br)c1 [Compound 0149] | 290
